The values that follow are results of earlier work, collected in US20220175648A1, “TOPICAL FORMULATIONS WITH LIPID-BASED CARRIERS” (KATE ROSE LLC, priority 2020, published 2022).

Data set [1] deals with UV B and reactive oxygen species. Conditions: in vitro studies.
A further data set deals with age spots. Particulars: 10% solution.
The next data set relates to collagen synthesis. Conditions: versus L-ascorbic acid at the same dosage.
The conditions of data set [2]: after just one year.

With `CCCCCCCCC(CCCCCC)C(=O)OC[C@H](OC(=O)C(CCCCCC)CCCCCCCC)[C@H]1OC(=O)C(OC(=O)C(CCCCCC)CCCCCCCC)=C1OC(=O)C(CCCCCC)CCCCCCCC` (stereo partly shown) [THD, Tetrahexyldecyl ascorbate], the “protection against UV B and reactive oxygen species” value in data set [1] is “effective at protecting against UV B and reactive oxygen species”. For the same compound, the “presence of age spots” value in the data set with age spots was “decreases the presence of age spots”. The “increase of collagen synthesis” value in the data set on collagen synthesis was “up to two times greater than L-ascorbic acid”.
Consider `O=C1O[C@H]([C@@H](O)CO)C(O)=C1O` [L-ascorbic acid], for which, in data set [2], the “break down of L-ascorbic acid” value is reported as 20%.
